From patent publication US8912121B2, “Herbicidal compositions comprising 4-amino-3-chloro-5-fluoro-6-(4-chloro-2-fluoro-3-methoxyphenyl)pyridine-2-carboxylic acid or a derivative thereof and certain PS II inhibitors” (Dow Agrosciences LLC, priority 2012, dated 2014)
“And” between values parts separate entries of the source, which are not always exact repeats. Equal values may be shown once.

Key:
Assay in all cases: Postemergence foliar-applied mixtures, direct seeded rice, greenhouse
[1] = test system: COMBE (Commelina benghalensis, Benghal dayflower); assay type: in vivo, Commelina benghalensis L.; settings: 20 DAA
Description: Seeds or nutlets of the desired test plant species were planted in a soil matrix prepared by mixing a loam or sandy loam soil (e.g., 28.6 percent silt, 18.8 percent clay, and 52.6 percent sand, with a pH of about 5.8 and an organic matter content of about 1.8 percent) and calcareous grit in an 80 to 20 ratio. The soil matrix was contained in plastic pots with a volume of 1 quart and a surface area of 83.6 square centimeters (cm^2). When required to ensure good germination and healthy plants, a fungicide treatment and/or other chemical or physical treatment was applied. The plants were grown for 8-22 days in a greenhouse with an approximate 14 h photoperiod which was maintained at about 29° C. during the day and 26° C. during the night. Nutrients (Peters Excel® 15-5-15 5-Ca 2-Mg and iron chelate) were applied in the irrigation solution as needed and water was added on a regular basis. Supplemental lighting was provided with overhead metal halide 1000-Watt lamps as necessary. The plants were employed for testing when they reached the first through fourth true leaf stage. […]
(§1) Treatment requirements were calculated based upon the rates being tested, the concentration of active ingredient or acid equivalent in the formulation, and a 12 mL application volume at a rate of 187 L/ha.
For treatments comprised of formulated compounds, measured amounts of compounds were placed individually in 25 mL glass vials and diluted in a volume of 1.25% (v/v) Agri-Dex® crop oil concentrated to obtain 12× stock solutions. […]
(§2) For treatments comprised of formulated and technical compounds, weighed amounts of the technical materials were placed individually in 25 mL glass vials and dissolved in a volume of 97:3 v/v acetone/DMSO to obtain 12× stock solutions, and measured amounts of the formulated compounds were placed individually in 25 mL glass vials and diluted in a volume of 1.5% (v/v) crop oil concentrate or water to obtain 12× stock solutions. […]

[2] = test system: BRAPP (Brachiaria platyphylla, broadleaf signalgrass); assay type: in vivo, Brachiaria platyphylla (Griseb.) Nash
Description: (§3) Seeds or nutlets of the desired test plant species were planted in a soil matrix prepared by mixing a loam or sandy loam soil (e.g., 28.6 percent silt, 18.8 percent clay, and 52.6 percent sand, with a pH of about 5.8 and an organic matter content of about 1.8 percent) and calcareous grit in an 80 to 20 ratio. The soil matrix was contained in plastic pots with a volume of 1 quart and a surface area of 83.6 square centimeters (cm^2). When required to ensure good germination and healthy plants, a fungicide treatment and/or other chemical or physical treatment was applied. The plants were grown for 8-22 days in a greenhouse with an approximate 14 h photoperiod which was maintained at about 29° C. during the day and 26° C. during the night. Nutrients (Peters Excel® 15-5-15 5-Ca 2-Mg and iron chelate) were applied in the irrigation solution as needed and water was added on a regular basis. Supplemental lighting was provided with overhead metal halide 1000-Watt lamps as necessary. The plants were employed for testing when they reached the first through fourth true leaf stage.
(§4) Treatments consisted of the acid or esters of 4-amino-3-chloro-5-fluoro-6-(4-chloro-2-fluoro-3-methoxy-phenyl) pyridine-2-carboxylic acid (Compound A), each formulated as an SC (suspension concentrate), and various herbicidal components alone and in combination. Forms of compound A were applied on an acid equivalent basis.
(§5) Other herbicidal components were applied on an active ingredient basis and included Photosystem II (PSII)-inhibiting herbicides propanil formulated as Stam® M4 EC, bentazon-sodium formulated as Basagran®, atrazine formulated as Atrazine 90 WDG, bromoxynil octanoate ester formulated as Buctril®, simetryne (technical grade material), simazine formulated as Princep® Caliber 90, ioxynil (technical grade material), cyanazine (technical grade material), and hexazinone (technical grade material).
as §1
(§6) For treatments comprised of formulated compounds, measured amounts of compounds were placed individually in 25 mL glass vials and diluted in a volume of 1.25% (v/v) Agri-Dex® crop oil concentrated to obtain 12× stock solutions. […] Application solutions were prepared by adding an appropriate amount of each stock solution (e.g., 1 mL) and diluted to the appropriate final concentrations with the addition of 10 mL of an aqueous mixture of 1.25% (v/v) crop oil concentrate so that the final spray solutions contained 1.25+/−0.05% (v/v) crop oil concentrate.
(§7) For treatments comprised of technical compounds, weighed amounts can be placed individually in 25 mL glass vials and dissolved in a volume of 97:3 v/v acetone/DMSO to obtain 12× stock solutions. […] Application solutions can be prepared by adding an appropriate amount of each stock solution (e.g., 1 mL) and diluted to the appropriate final concentrations with the addition of 10 mL of an aqueous mixture of 1.5% (v/v) crop oil concentrate so that the final spray solutions contain 1.25% (v/v) crop oil concentrate. When technical materials are used, the concentrated stock solutions can be added to the spray solutions so that the final acetone and DMSO concentrations of the application solutions are 16.2% and 0.5%, respectively.
as §2

[3] = test system: CYPIR (Cyperus iria, rice flatsedge); assay type: in vivo, Cyperus iria L.
Description: as §3, §4, §5, §1, §6, §7, §2

## CCC(=O)Nc1ccc(Cl)c(Cl)c1 [Propanil, N-(3,4-dichlorophenyl)propanamide, reference compound]
[1]; 3360 g ai/ha
  Visual Weed Control (%) Obs: 10%

## CCNc1nc(Cl)nc(NC(C)C)n1 [Atrazine, 6-chloro-N-ethyl-N′-(1-methylethyl)-1,3,5-triazine-2,4-diamine, reference compound]
[2]; 280 g ai/ha, 22 DAA
  Visual Weed Control (%) Obs: 0%
[2]; 560 g ai/ha, 22 DAA
  Visual Weed Control (%) Obs: 0%
[3]; 280 g ai/ha, 22 DAA
  Visual Weed Control (%) Obs: 0%
[3]; 560 g ai/ha, 22 DAA
  Visual Weed Control (%) Obs: 100%
[3]; 1120 g ai/ha, 22 DAA
  Visual Weed Control (%) Obs: 80%

## COc1c(Cl)ccc(-c2nc(C(=O)OCc3ccccc3)c(Cl)c(N)c2F)c1F [Compound A Benzyl Ester, benzyl ester of 4-amino-3-chloro-5-fluoro-6-(4-chloro-2-fluoro-3-methoxy-phenyl)pyridine-2-carboxylic acid]
[1]; 6 g ae/ha
  Visual Weed Control (%) Obs: 80% and 70%
[2]; 4.38 g ae/ha, 22 DAA
  Visual Weed Control (%) Obs: 55%
[2]; 8 g ae/ha, 20 DAA
  Visual Weed Control (%) Obs: 55%
[2]; 8.75 g ae/ha, 22 DAA
  Visual Weed Control (%) Obs: 70%
[2]; 16 g ae/ha, 20 DAA
  Visual Weed Control (%) Obs: 90%
[2]; 17.5 g ae/ha, 22 DAA
  Visual Weed Control (%) Obs: 75%
[2]; 32 g ae/ha, 20 DAA
  Visual Weed Control (%) Obs: 90%
[3]; 8 g ae/ha, 20 DAA
  Visual Weed Control (%) Obs: 70%
[3]; 8 g ae/ha, 22 DAA
  Visual Weed Control (%) Obs: 10%
[3]; 16 g ae/ha, 20 DAA
  Visual Weed Control (%) Obs: 90%
[3]; 16 g ae/ha, 22 DAA
  Visual Weed Control (%) Obs: 60%
[3]; 32 g ae/ha, 20 DAA
  Visual Weed Control (%) Obs: 90%

## CCNc1nc(Cl)nc(NCC)n1 [Simazine, 6-chloro-N,N′-diethyl-1,3,5-triazine-2,4-diamine, reference compound]
[2]; 560 g ai/ha, 20 DAA
  Visual Weed Control (%) Obs: 0%
[2]; 1120 g ai/ha, 20 DAA
  Visual Weed Control (%) Obs: 0%
[2]; 2240 g ai/ha, 20 DAA
  Visual Weed Control (%) Obs: 0%
[3]; 560 g ai/ha, 20 DAA
  Visual Weed Control (%) Obs: 0%
[3]; 1120 g ai/ha, 20 DAA
  Visual Weed Control (%) Obs: 0%
[3]; 2240 g ai/ha, 20 DAA
  Visual Weed Control (%) Obs: 30%

## COc1c(Cl)ccc(-c2nc(C(=O)O)c(Cl)c(N)c2F)c1F [Compound A Acid, 4-amino-3-chloro-6-(4-chloro-2-fluoro-3-methoxyphenyl)-5-fluoropyridine-2-carboxylic acid]
[2]; 4.38 g ae/ha, 22 DAA
  Visual Weed Control (%) Obs: 45%
[2]; 8.75 g ae/ha, 22 DAA
  Visual Weed Control (%) Obs: 70%
[3]; 4.38 g ae/ha, 22 DAA
  Visual Weed Control (%) Obs: 15%
